According to US5573923A, “Method for removing N-terminal dipeptides from precursor polypeptides with immobilized dipeptidylaminopeptidase from dictyostelium discoideum” (Eli Lilly and Company, priority 1993, dated 1996):
Residues, ends and D or L forms follow the SMILES beside them. *: point of attachment. pNA = O=[N+]([O-])c1ccc(N*)cc1; AMC = Cc1cc(=O)oc2cc(N*)ccc12; βNA = c1ccc2cc(N*)ccc2c1; Cbz = O=C(OCc1ccccc1)*

Assays:
bovine spleen DAP-I = biological target: T1, bovine spleen DAP-I (Bos taurus, UniProt Q3ZCJ8); assay: Inhibition of GFpNA cleavage by sulfhydryl modifying agents; type: biochemical; conditions: 5 mM inhibitor, 15 minutes at room temperature, pH 7; then 4 mM GFpNA, pH 3.5, 37° C.; read-out: decrease (inhibition) of rate of cleavage of GFpNA
T1 construct: bovine spleen DAP-I; from tissue; host or cells: bovine spleen
Experimental: (§1) After purification or storage, dDAP enzymatic activity was usually monitored by following the cleavage of the chromogenic substrate GFpNA. Typically the assay was performed by diluting the enzyme at least 11 fold into 1.0 ml of 4 mM GFpNA in 0.05M acetic acid adjusted to pH 3.5. The rate of cleavage of Gly-Phe dipeptide was monitored at 37° C. by measuring the increase in absorbance at 405 nm. One unit of activity leads to a 0.90 OD change per minute under these conditions. Unit/ml estimates can be made assuming an extinction coefficient for free p-nitroanilide (pNA) of 9.9 mM-1 cm-1 at 405 nm.
(§2) The inhibition profile of dDAP toward the substrate GFpNA was compared to that of bovine spleen DAP-I using iodoacetamide and potassium tetrathionate, sulfhydryl modifying agents known to inhibit the activity of bovine spleen DAP-I. Samples of dDAP or bovine spleen DAP-I were incubated for 15 minutes at room temperature in final concentrations of 0, 0.5, 5.0 or 50 mM of either inhibitor at pH 7 in 100 mM Tris buffer. The incubated solutions were then diluted 21-fold with 4 mM GFpNA, pH 3.5. The rate of cleavage was monitored by measuring the increase in absorbance at 405 nm at 37° C. Bovine DAP-I's rate of cleavage of GFpNA was decreased more than 90% by the exposure to 5 mM iodoacetamide and was 95% inhibited by 5 mM potassium tetrathionate.

dDAP [1] = assay: as above; type: biochemical, Dictyostelium discoideum; conditions: 0.5, 5.0 or 50 mM inhibitor, 15 minutes at room temperature, pH 7; then 4 mM GFpNA, pH 3.5, 37° C.
Experimental: as §1, §2

dDAP [2] = assay: pH dependence of substrate cleavage by dDAP; type: biochemical, Dictyostelium discoideum; conditions: unbound dDAP
Experimental: The pH optima for the GFpNA cleaving ability of dDAP was determined by adjusting a buffer consisting of 0.5M Tris®, phosphate and citrate with 10% HCl or 10% NaOH to various pHs within the range of 3 to 8. dDAP enzyme was diluted 20-fold in a buffer containing 100 mM cysteamine and 10 mM NaCl. Bovine DAP-I was diluted 200-fold in the same buffer. A GFpNA substrate solution (4 mM) was prepared in 2% dimethylformamide. In a microtiter plate, 0.025 ml of the Tris/phosphate/citrate buffer of various pH's was combined with 0.1 ml of diluted enzyme and with 0.1 ml of substrate solution. The rate of increase of absorbance at 410 nm was determined on a plate-reader over a 30 minute period.
Four mM GRpNA was prepared in 50 mM acetic acid, 50 mM glycine buffer, pH 5. HCl or NaOH was used to achieve a variety of pHs, from 5.1 to 2.3. To 180 ul of the above pH buffered substrate was added 5 ul dDAP (49 milliunits/ml final). The rate of increase of absorbance at 410 nm was monitored (using a plate-reader) and the rate of increase was compared with the pH of the reaction solution.
(§3) About 0.25 mM RRBNA or 0.25 mM Z-RRBNA was prepared in either 100 mM acetic acid, pH 3.5, or 100 mM citrate buffer, pH 5.0. To 2 ml of substrate was added dDAP or bovine DAP-I (about 15 milliunit/ml solution). Rates of cleavage (monitoring fluorescence increase at 410 nm with excitation at 340 nm) were monitored. […] The pH optimum for cleavage of RRBNA was probed by monitoring the rate of RRBNA cleavage using a buffer system consisting of 50 mM acetic acid and 50 mM citrate. Various pHs were achieved using HCl or NaOH and 1.5 ml volumes were made 2.0 with 0.5 ml of a 1 mM stock solution of RRBNA (final concentration of about 0.25 mM). dDAP was added (to about 15 mU/ml) and the rates of cleavage were determined.
The skilled artisan will recognize that the optimum pH for cleavage of a substrate not only depends upon the enzyme but the substrate itself, that is, the constitution of the removed dipeptide as well as the indicator group itself.

bovine DAP-I = biological target: T2, bovine DAP-I (Bos taurus, UniProt Q3ZCJ8); assay: Cleavage of RRBNA and Z-RRBNA (fluorescence increase); type: biochemical; conditions: about 0.25 mM substrate, pH 3.5 or pH 5.0, about 15 milliunit/ml enzyme
T2 construct: bovine spleen DAP-I; from tissue; host or cells: bovine spleen
Experimental: as §3

dDAP [3] = assay: as above; type: biochemical, Dictyostelium discoideum; conditions: about 0.25 mM substrate, pH 3.5 or pH 5.0, about 15 milliunit/ml enzyme
Experimental: as §3

T2 sequence (Q3ZCJ8 231-394 limits assumed): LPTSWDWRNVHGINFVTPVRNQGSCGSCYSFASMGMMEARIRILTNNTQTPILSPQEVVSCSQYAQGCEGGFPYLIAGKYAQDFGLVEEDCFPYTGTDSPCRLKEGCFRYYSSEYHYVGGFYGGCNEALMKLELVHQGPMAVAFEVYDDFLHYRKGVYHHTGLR
T2 sequence (Q3ZCJ8 395-463 limits assumed): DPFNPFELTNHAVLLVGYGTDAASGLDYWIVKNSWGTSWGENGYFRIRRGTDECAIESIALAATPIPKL
T2 sequence (Q3ZCJ8 25-143 limits assumed): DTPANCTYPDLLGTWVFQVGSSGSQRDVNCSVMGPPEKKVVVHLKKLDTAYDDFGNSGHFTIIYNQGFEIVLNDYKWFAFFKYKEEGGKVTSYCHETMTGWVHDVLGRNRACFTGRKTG
T1 sequence (Q3ZCJ8 231-394 limits assumed): as the sequence (Q3ZCJ8 231-394 limits assumed) above
T1 sequence (Q3ZCJ8 395-463 limits assumed): as the sequence (Q3ZCJ8 395-463 limits assumed) above
T1 sequence (Q3ZCJ8 25-143 limits assumed): as the sequence (Q3ZCJ8 25-143 limits assumed) above

Structure (SMILES): NC(=O)CI [iodoacetamide]
- inhibition at 5000 µM (bovine spleen DAP-I): > 90%
- inhibition of GFpNA cleavage (dDAP [1]): no evidence of significant inhibition

Structure (SMILES): N=C(N)NCCC[C@H](NC(=O)CN)C(=O)Nc1ccc([N+](=O)[O-])cc1 [GRpNA, Gly-Arg-pNA] (H-Gly-Arg-pNA)
- activity over the pH range (dDAP [2]): little activity below pH 2.5 or above pH 5
- pH optimum for cleavage of the substrate (dDAP [2]; listed as G1y-Arg-pNA): ~3.5 pH

Structure (SMILES): N=C(N)NCCC[C@H](NC(=O)OCc1ccccc1)C(=O)N[C@@H](CCCNC(=N)N)C(=O)Nc1ccc2ccccc2c1 [Z-RRBNA, Benzyioxycarbonyl-RRBNA] (Cbz-Arg-Arg-βNA)
- cleavage of substrate (bovine DAP-I): unable to cleave
- cleavage of substrate (dDAP [3]): unable to cleave

Structure (SMILES): N=C(N)NCCC[C@H](NC(=O)[C@@H](N)CCCNC(=N)N)C(=O)Nc1ccc2ccccc2c1 [RRBNA, Arg-Arg-β-naphthylamide] (H-Arg-Arg-βNA)
- cleavage of substrate (bovine DAP-I): unable to cleave
- cleavage of substrate (dDAP [3]): able to effectively cleave
- activity over the pH range (dDAP [2]): significant activity seen over the entire range probed (pH 3.5 to pH 5.7)

Structure (SMILES): O=S(=O)([O-])SSS(=O)(=O)[O-].[K+].[K+] [potassium tetrathionate]
- inhibition of GFpNA cleavage (dDAP [1]): no evidence of significant inhibition

Structure (SMILES): Cc1cc(=O)oc2cc(NC(=O)[C@H](CCCNC(=N)N)NC(=O)CN)ccc12 [Gly-Arg-7-amido-4-methylcoumarin] (H-Gly-Arg-{AMC})
- pH optimum for cleavage of the substrate (dDAP [2]): ~5 pH

Structure (SMILES): NCC(=O)N[C@@H](Cc1ccccc1)C(=O)Nc1ccc([N+](=O)[O-])cc1 [GFpNA, Gly-Phe p-nitroanilide] (H-Gly-Phe-pNA)
- pH optimum for cleavage of the substrate (dDAP [2]): ~3.5 pH
